What was measured:
hERG channel = hERG channel (Homo sapiens, UniProt Q12809); experiment: hERG ligand-binding assay; conditions: HEK293 cells transfected with hERG
Protocol: Both hERG assays were conducted as described previously.

CRC cells [1] = experiment: Measurement of HMGB1 release (ELISA); format: cell-based
Protocol: For the quantitative determination of extracellular ATP, the cells were treated with Α3373. Extracellular release of ATP was assessed using the ENLITEN ATP Assay kit (Promega) according to the manufacturer’s instructions. For the HMGB1 level measurement, the supernatants of the cells were prepared by removing insoluble materials by centrifugation at 10,000 × g for 3 min at 4 °C. The levels of HMGB1 were measured using an HMGB1 detection kit (Chondrex) according to the manufacturer’s instructions.

CRC cells [2] = experiment: Cell migration and invasion assay; format: cell-based
Protocol: For the cell migration assay, the cells were added to an 8 μm pore transwell polycarbonate chamber (SPL Life Science). After 24 h of incubation, the number of cells that migrated through the membrane into the lower chamber was counted. For the cell invasion assay, Matrigel (dilution at 1:5; BD Biosciences) was added to the Transwell chambers and incubated for 5 h. The cells were then seeded; after 24 h of incubation, the invaded cells on the bottom of the membrane were fixed with 10% formalin for 20 min and stained with 0.1% crystal violet for 3 h. The extent of invasion was expressed as the average number of cells per microscopic field.

hERG channel, sequence (Q12809 whole entry): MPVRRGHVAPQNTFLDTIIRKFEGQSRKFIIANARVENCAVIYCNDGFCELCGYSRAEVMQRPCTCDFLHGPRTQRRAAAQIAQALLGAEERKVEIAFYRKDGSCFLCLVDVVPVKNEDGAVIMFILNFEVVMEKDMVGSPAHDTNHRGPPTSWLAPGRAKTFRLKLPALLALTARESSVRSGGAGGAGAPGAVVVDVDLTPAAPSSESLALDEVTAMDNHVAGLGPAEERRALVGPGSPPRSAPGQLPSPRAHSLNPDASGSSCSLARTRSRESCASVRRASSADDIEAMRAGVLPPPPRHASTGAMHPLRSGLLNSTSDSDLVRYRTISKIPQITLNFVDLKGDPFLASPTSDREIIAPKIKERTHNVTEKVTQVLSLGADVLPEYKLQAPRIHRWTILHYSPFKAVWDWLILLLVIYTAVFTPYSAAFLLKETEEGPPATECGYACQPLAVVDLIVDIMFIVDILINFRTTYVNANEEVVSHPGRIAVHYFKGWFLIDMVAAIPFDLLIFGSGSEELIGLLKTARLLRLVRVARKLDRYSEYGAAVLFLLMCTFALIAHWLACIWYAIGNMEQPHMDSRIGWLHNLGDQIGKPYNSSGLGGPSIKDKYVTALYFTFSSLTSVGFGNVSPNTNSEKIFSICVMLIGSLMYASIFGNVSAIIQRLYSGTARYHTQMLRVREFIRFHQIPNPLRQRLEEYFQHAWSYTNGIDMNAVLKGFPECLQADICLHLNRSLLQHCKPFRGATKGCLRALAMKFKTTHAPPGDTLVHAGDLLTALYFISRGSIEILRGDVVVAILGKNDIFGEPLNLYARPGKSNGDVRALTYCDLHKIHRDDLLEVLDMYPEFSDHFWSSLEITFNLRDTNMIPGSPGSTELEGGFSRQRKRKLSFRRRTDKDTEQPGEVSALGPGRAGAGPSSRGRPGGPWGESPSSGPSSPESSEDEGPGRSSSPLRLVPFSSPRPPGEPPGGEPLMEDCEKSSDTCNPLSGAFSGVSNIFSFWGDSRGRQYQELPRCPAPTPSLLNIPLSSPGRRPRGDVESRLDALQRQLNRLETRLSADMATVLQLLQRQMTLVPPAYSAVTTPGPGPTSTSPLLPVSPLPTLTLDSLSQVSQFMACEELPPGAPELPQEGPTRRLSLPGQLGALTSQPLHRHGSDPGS

SMILES: O=C(Nc1cc(C(F)(F)F)cc(C(F)(F)F)c1)c1cc2cc(F)ccc2[nH]1 [Compound A3373]
- inhibition at 10 µM (hERG channel): 3.4%
- release of HMGB1, in words (CRC cells [1]): increased the release of HMGB1 in a dose-dependent manner
- Wnt3a-induced migration and invasion (CRC cells [2]): significantly suppressed Wnt3a-induced migration and invasion

From PMC9535023, “Inhibition of phospholipase D1 induces immunogenic cell death and potentiates cancer immunotherapy in colorectal cancer” (Experimental & Molecular Medicine, 2022)
